Values quoted from earlier work as cited in patent US20240374519A1, “COMPOSITIONS FOR SUPPLEMENTING PRODUCTS WITH THERAPEUTIC AGENTS AND METHODS OF USE THEREOF” (DISRUPTION LABS, INC., priority 2021, published 2024).

## C=C(C)[C@@H]1CCC(C)=C[C@H]1c1c(O)cc(CCCCC)cc1O [Cannabidiol]
  log P: > 5
